{"source": "patent US20030153571A1", "about": "(priority 2002, published 2003)"}
{"molecular_target": "T1, NMDA receptor glycine site (Rattus norvegicus, UniProt P35439)", "T1 construct": "to brain membranes bearing the receptor; tissue Analytical Biological Services Inc; host or cells: rat brain membranes (cerebral cortex and hippocampus, male Sprague Dawley rats)", "test": "Test A: Inhibition of binding of [3H]-MDL105,519 to brain membranes", "settings": "inhibition of [3H]MDL105,519 binding, brain membranes", "source_text": "(§1) Test A: Inhibition of binding of [^3H]-MDL105,519:\n(§2) Binding of compounds to the NMDA receptor glycine site may be assessed by measuring the ability of test compounds to inhibit the binding of tritiated MDL105,519 to brain membranes bearing the receptor.\n(§3) Briefly, fresh brain tissue including cerebral cortex and hippocampus from male Sprague Dawley rats was homogenized in 0.32 M sucrose and centrifuged at low speed to separate cellular membranes from other cellular components. The membranes were then washed 3 times using deionized water, followed by treatment with 0.04% Triton X-100. Finally, membranes were washed six times in 50 mM Tris citrate buffer, pH 7.4, and frozen at −80° C. until use.\n(§4) [^3H]MDL105,519 (72 Ci/mmol) was purchased from Amersham. Cold MDL105,519 was purchased from Sigma/RBI. […] On the day of the experiment, brain membranes were thawed at room temperature and suspended in 50 mM tris acetate buffer, pH 7.4 (“TAB”). Seventy-five micro grams per milliliter protein (by using the BioRad dye) were used for competition binding. The experiments were carried out using 96-well plates. […] Non specific binding was determined by using 100 μM of unlabeled MDL105,519. […] After incubation, unbound [^3H]MDL105,519 was removed by filtration onto GF/B Unifilter plates using a Packard harvester. Filters were washed four times with ice cold TAB (total of 1.2 mL buffer). The plates were dried overnight at room temperature and bound radioactivity was measured on a Packard TopCount after the addition of 45 μL per well of the MICROSCINT O.\n(§5) Human Brain Membranes: Human brain membranes were obtained from Analytical Biological Services Inc., and assays were performed as described for rat membranes.\n(§6) Data analysis: Data was analyzed using a Microsoft Excel spreadsheet and GraphPad Prizm software and potency of compounds is expressed as the Ki (nM).", "units": {"Ki": "nM"}}
{"compound": "CCCC(c1ccccn1)n1nc(O)c2[nH]c3cc(Cl)ccc3c(=O)c2c1=O", "note": "(racemic) [Ex. 6, (+/−)-7-Chloro-4-hydroxy-2-(butyl-1-(2-pyridyl))-1,2,5,10-tetrahydropyridazino[4,5-b]quinoline-1,10-dione methanesulfonate]", "Ki": "> 10000"}
{"molecular_target": "T1, NMDA receptor glycine site", "test": "Test A: Inhibition of binding of [3H]-MDL105,519 to brain membranes", "settings": "inhibition of [3H]MDL105,519 binding, brain membranes (rat and human membranes described; table does not say which)", "source_text": "as §1, §2, §3, §4, §5, §6", "units": {"Ki": "nM"}}
{"compound": "CC(C)C(c1ccncc1)n1nc(O)c2[nH]c3cc(Cl)ccc3c(=O)c2c1=O", "note": "(racemic) [Ex. 8, (+/−)-7-Chloro-4-hydroxy-2-(propyl-(2-methyl-1-(4-pyridyl))-1,2,5,10-tetrahydropyridazino[4,5-b]quinoline-1,10-dione methanesulfonate]", "Ki": 5230}
{"compound": "(+/−)-7-Chloro-4-hydroxy-2-(4-pyridylprop-1-yl)-1,2,5,10-tetrahydropyridazino[4,5-b]quinoline-1,10-dione sodium methanesulfonate [Ex. 3]", "Ki": 1940}
{"compound": "CC(c1ccc(C#N)s1)n1nc(O)c2[nH]c3cc(Cl)ccc3c(=O)c2c1=O", "note": "(centres unmarked) [Ex. 22, 7-Chloro-4-hydroxy-2-(1-(5-cyanothien-2-yl)ethyl)-1,2,5,10-tetrahydropyridazino[4,5-b]quinoline-1,10-dione]", "Ki": 692}
{"compound": "CC(c1cc2ccccc2s1)n1nc(O)c2[nH]c3cc(Cl)ccc3c(=O)c2c1=O", "note": "(centres unmarked) [Ex. 21]", "Ki": 177}
{"compound": "O=c1c2ccc(Cl)cc2[nH]c2c(O)nn(CCc3cccnc3Cl)c(=O)c12", "note": "[Ex. 15, (+/−)-7-Chloro-4-hydroxy-2-(2-chloro-pyrid-3-yl)ethyl-1,2,5,10-tetrahydropyridazino[4,5-b]quinoline-1,10-dione]", "Ki": 676}
{"compound": "CC(c1ccnc(Cl)c1)n1nc(O)c2[nH]c3cc(Cl)ccc3c(=O)c2c1=O", "note": "(racemic) [Ex. 16, (+/−)-7-Chloro-1-hydroxy-2-(2-chloro(4-pyridyl)ethyl)-1,2,5,10-tetrahydropyridazino[4,5-b]quinoline-1,10-dione]", "Ki": 51}
{"compound": "CCC(c1ccccn1)n1[nH]c(=O)c2nc3cc(Cl)ccc3c(O)c2c1=O", "note": "(racemic) [Ex. 4, (+/−)-7-Chloro-4-hydroxy-2-(propyl-1-(2-pyridyl))-1,2,5,10-tetrahydropyridazino [4,5-b]quinoline-1,10-dione methanesulfonate]", "Ki": 1810}
{"compound": "CC(C)CC(c1ccncc1)n1[nH]c(=O)c2nc3cc(Cl)ccc3c(O)c2c1=O", "note": "(racemic) [Ex. 12, (+/−)-7-Chloro-4-hydroxy-2-(3-methyl-1-(4-pyridyl)butyl)-1,2,5,10-tetrahydropyridazino[4,5-b]quinoline-1,10-dione]", "Ki": 5230}
{"compound": "CC(c1ccco1)n1nc(O)c2[nH]c3cc(Cl)ccc3c(=O)c2c1=O", "note": "(racemic)", "Ki": 153}
{"compound": "CC(c1cnccn1)n1nc(O)c2[nH]c3cc(Cl)ccc3c(=O)c2c1=O", "note": "(centres unmarked) [Ex. 23, 7-Chloro-4-hydroxy-2-(ethyl-1-(pyrazin-2-yl))-1,2,5,10-tetrahydropyridazino [4,5-b]quinoline-1,10-dione]", "Ki": 336}
{"compound": "COc1ccc(C(C)n2nc(O)c3[nH]c4cc(Cl)ccc4c(=O)c3c2=O)cn1", "note": "(racemic) [Ex. 14, (+/−)-7-Chloro-4-hydroxy-2-(1-(2-methoxypyrid-5-yl))ethyl-1,2,5,10-tetrahydropyridazino[4,5-b]quinoline-1,10-dione methanesulfonate]", "Ki": 312}
{"compound": "CCCC(c1ccncc1)n1nc(O)c2[nH]c3cc(Cl)ccc3c(=O)c2c1=O", "note": "(racemic) [Ex. 7, (+/−)-7-Chloro-4-hydroxy-2-(butyl-1-(4-pyridyl))-1,2,5,10-tetrahydropyridazino[4,5-b]quinoline-1,10-dione]", "Ki": 4340}
{"compound": "COc1cnccc1C(C)n1nc(O)c2[nH]c3cc(Cl)ccc3c(=O)c2c1=O", "note": "(racemic) [Ex. 13, (+/−)7-Chloro-4-hydroxy-2-(1-(3-methoxypyrid-4-yl))ethyl-1,2,5,10-tetrahydropyridazino[4,5-b]quinoline-1,10-dione methanesulfonate]", "Ki": 568}
{"test_system": "not given", "test": "not given", "settings": "not given", "units": {"melting point": "°C"}}
{"compound": "CS(=O)(=O)O.O=c1c2ccc(Cl)cc2[nH]c2c(O)nn(CCc3ccncc3)c(=O)c12", "note": "[Ex. 2, (+/−)-7-Chloro-4-hydroxy-2-(4-pyridyleth-1-yl)-1,2,5,10-tetrahydropyridazino[4,5-b]quinoline-1,10-dione methanesulfonate]", "melting point": "245 to 248"}
{"test_system": "CCI rats (thermal hyperalgesia)", "test": "Test C: Neuropathic pain model (Chronic Constriction Injury), thermal hyperalgesia paw-withdrawal test", "assay_type": "in vivo, rat", "settings": "oral, three times daily for 5 days, at the MED, compared to vehicle-treated animals", "source_text": "(§7) Test C: Neuropathic pain model (Chronic Constriction Injury):\n(§8) The anti-hyperalgesic properties of a compound may be tested with the Chronic Constriction Injury (“CCI”) model. The test is a model for neuropathic pain associated with nerve injuries that can arise directly from trauma and compression, or indirectly from a wide range of diseases such as infection, cancer, metabolic conditions, toxins, nutritional deficiencies, immunological dysfunction, and musculoskeletal changes. In the model a unilateral peripheral hyperalgesia is produced in rats by nerve ligation (G. J. Bennett, et al., Pain 33, 87-107 (1988)).\n(§9) Procedurally, Sprague-Dawley rats (250-350 g) are anesthetized with sodium pentobarbital and the common sciatic nerve is exposed at the level of the mid thigh by blunt dissection through the biceps femoris. […] Thermal hyperalgesia is measured using a paw-withdrawal test (K. Hargreaves, et al., Pain 32, 77-88 (1988)). […] The latencies for the withdrawal reflex in both hind paws are recorded.\n(§10) Injured paws with ligated nerves show shorter paw withdrawal latencies compared to the uninjured or sham operated paws. Responses to test compounds are evaluated at different times after oral administration to determine the onset and duration of compound effect. […] Paw withdrawal latencies are measured each day 10 min before and 2 or 3 hr. after the first daily dose. […]", "units": {"Test C %Inh. (percent decrease in hyperalgesia at the MED)": "%"}}
{"compound": "(+/−)-7-Chloro-4-hydroxy-2-(4-pyridylprop-1-yl)-1,2,5,10-tetrahydropyridazino[4,5-b]quinoline-1,10-dione sodium methanesulfonate [Ex. 3]", "Test C %Inh. (percent decrease in hyperalgesia at the MED)": 10}
{"test_system": "CCI rats (thermal hyperalgesia)", "test": "Test C: Neuropathic pain model (Chronic Constriction Injury), thermal hyperalgesia paw-withdrawal test", "assay_type": "in vivo, rat", "settings": "oral, three times daily for 5 days, dose giving statistically significant decrease in hyperalgesia", "source_text": "as §7, §8, §9, §10", "units": {"Test C MED (minimum effective dose)": "mg/kg/day"}}
{"compound": "(+/−)-7-Chloro-4-hydroxy-2-(4-pyridylprop-1-yl)-1,2,5,10-tetrahydropyridazino[4,5-b]quinoline-1,10-dione sodium methanesulfonate [Ex. 3]", "Test C MED (minimum effective dose)": 30}
